Species on record: Rattus norvegicus
Assay: Open TG-GATES - Regimen: Single
Type: toxicity, organism-based, Sprague-Dawley
Set-up: regimen Single, gender Male, age 6 weeks
Details: in vivo, po, 6 mg/kg, route gavage, dose level Low; for APTT / Bas / Eos / Fbg / Hb / Ht / Lym / MCH / MCHC / MCV / Mono / Neu / PT / Plat / RBC / Ret / WBC: tissue Blood; for LIVER: tissue Liver; for A/G / ALP / ALT / AST / BUN / CRE / Ca / Cl / DBIL / GLC / IP / K / LDH / Na / PL / RALB / TBIL / TC / TG / TP / gamma-GTP: tissue Plasma

Structure (SMILES): O=[N+]([O-])c1ccc(O)c([N+](=O)[O-])c1 [2,4-DINITROPHENOL]
- TERMINAL_BW (3 h): 204.4 g
- APTT (3 h): 17 s
- Bas (3 h): 0%
- Eos (3 h): 0.8%
- Fbg (3 h): 232 mg/dL
- Hb (3 h): 12.9 g/dL
- Ht (3 h): 38.5%
- Lym (3 h): 74.8%
- MCH (3 h): 21.6 pg
- MCHC (3 h): 33.5%
- MCV (3 h): 64.6 fL
- Mono (3 h): 9.6%
- Neu (3 h): 14.8%
- PT (3 h): 12.2 s
- Plat (3 h): 124.6 x10_4/uL
- RBC (3 h): 595.6 x10_4/ul
- Ret (3 h): 9.1%
- WBC (3 h): 105.2 x10_2/uL
- LIVER (3 h): 9.7 g
- A/G (3 h): 2.4
- ALP (3 h): 1437.4 IU/L
- ALT (3 h): 38 IU/L
- AST (3 h): 69 IU/L
- BUN (3 h): 11 mg/dL
- CRE (3 h): 0.4 mg/dL
- Ca (3 h): 11.2 mg/dL
- Cl (3 h): 103.2 meq/L
- DBIL (3 h): 0.014 mg/dL
- GLC (3 h): 185.2 mg/dL
- IP (3 h): 10.4 mg/dL
- K (3 h): 4.3 meq/L
- LDH (3 h): 110.2 IU/L
- Na (3 h): 138.4 meq/L
- PL (3 h): 139.8 mg/dL
- RALB (3 h): 3.8 g/dL
- TBIL (3 h): 0.046 mg/dL
- TC (3 h): 79 mg/dL
- TG (3 h): 57 mg/dL
- TP (3 h): 5.4 g/dL
- gamma-GTP (3 h): 0 IU/L
- TERMINAL_BW (6 h): 202.3 g
- APTT (6 h): 16.3 s
- Bas (6 h): 0%
- Eos (6 h): 1%
- Fbg (6 h): 252.2 mg/dL
- Hb (6 h): 13 g/dL
- Ht (6 h): 38.9%
- Lym (6 h): 73%
- MCH (6 h): 21.3 pg
- MCHC (6 h): 33.4%
- MCV (6 h): 63.9 fL
- Mono (6 h): 10%
- Neu (6 h): 16.4%
- PT (6 h): 12.1 s
- Plat (6 h): 124.2 x10_4/uL
- RBC (6 h): 608.6 x10_4/ul
- Ret (6 h): 9.3%
- WBC (6 h): 116.8 x10_2/uL
- LIVER (6 h): 9.2 g
- A/G (6 h): 2.4
- ALP (6 h): 1588.6 IU/L
- ALT (6 h): 35.4 IU/L
- AST (6 h): 69.2 IU/L
- BUN (6 h): 10.6 mg/dL
- CRE (6 h): 0.4 mg/dL
- Ca (6 h): 10.9 mg/dL
- Cl (6 h): 105.2 meq/L
- DBIL (6 h): 0.012 mg/dL
- GLC (6 h): 198 mg/dL
- IP (6 h): 9.3 mg/dL
- K (6 h): 4.4 meq/L
- LDH (6 h): 135.6 IU/L
- Na (6 h): 139 meq/L
- PL (6 h): 154 mg/dL
- RALB (6 h): 3.9 g/dL
- TBIL (6 h): 0.05 mg/dL
- TC (6 h): 92.4 mg/dL
- TG (6 h): 61.4 mg/dL
- TP (6 h): 5.6 g/dL
- gamma-GTP (6 h): 0 IU/L
- TERMINAL_BW (9 h): 199.2 g
- APTT (9 h): 15.6 s
- Bas (9 h): 0%
- Eos (9 h): 1%
- Fbg (9 h): 244.6 mg/dL
- Hb (9 h): 12.9 g/dL
- Ht (9 h): 38.5%
- Lym (9 h): 72%
- MCH (9 h): 21.7 pg
- MCHC (9 h): 33.5%
- MCV (9 h): 64.7 fL
- Mono (9 h): 12.8%
- Neu (9 h): 14.4%
- PT (9 h): 11.9 s
- Plat (9 h): 125.6 x10_4/uL
- RBC (9 h): 595 x10_4/ul
- Ret (9 h): 8.8%
- WBC (9 h): 87.8 x10_2/uL
- LIVER (9 h): 8.6 g
- A/G (9 h): 2.5
- ALP (9 h): 1398.6 IU/L
- ALT (9 h): 31.4 IU/L
- AST (9 h): 66.2 IU/L
- BUN (9 h): 11.4 mg/dL
- CRE (9 h): 0.4 mg/dL
- Ca (9 h): 11 mg/dL
- Cl (9 h): 104.4 meq/L
- DBIL (9 h): 0.01 mg/dL
- GLC (9 h): 191.4 mg/dL
- IP (9 h): 10.7 mg/dL
- K (9 h): 4.9 meq/L
- LDH (9 h): 145 IU/L
- Na (9 h): 138.4 meq/L
- PL (9 h): 157.4 mg/dL
- RALB (9 h): 3.9 g/dL
- TBIL (9 h): 0.046 mg/dL
- TC (9 h): 93.2 mg/dL
- TG (9 h): 57.6 mg/dL
- TP (9 h): 5.5 g/dL
- gamma-GTP (9 h): 0.2 IU/L
- TERMINAL_BW (24 h): 220.4 g
- APTT (24 h): 15.9 s
- Bas (24 h): 0%
- Eos (24 h): 1.4%
- Fbg (24 h): 237.4 mg/dL
- Hb (24 h): 12.8 g/dL
- Ht (24 h): 38.4%
- Lym (24 h): 72.8%
- MCH (24 h): 21.6 pg
- MCHC (24 h): 33.4%
- MCV (24 h): 64.8 fL
- Mono (24 h): 10.4%
- Neu (24 h): 15.6%
- PT (24 h): 11.6 s
- Plat (24 h): 131.6 x10_4/uL
- RBC (24 h): 593.2 x10_4/ul
- Ret (24 h): 7.8%
- WBC (24 h): 107.2 x10_2/uL
- LIVER (24 h): 11.3 g
- A/G (24 h): 2.5
- ALP (24 h): 1262 IU/L
- ALT (24 h): 38.8 IU/L
- AST (24 h): 64.8 IU/L
- BUN (24 h): 14.8 mg/dL
- CRE (24 h): 0.4 mg/dL
- Ca (24 h): 11.3 mg/dL
- Cl (24 h): 103.2 meq/L
- DBIL (24 h): 0.012 mg/dL
- GLC (24 h): 193.6 mg/dL
- IP (24 h): 7.3 mg/dL
- K (24 h): 4.6 meq/L
- LDH (24 h): 105 IU/L
- Na (24 h): 139.4 meq/L
- PL (24 h): 159.6 mg/dL
- RALB (24 h): 4 g/dL
- TBIL (24 h): 0.034 mg/dL
- TC (24 h): 90 mg/dL
- TG (24 h): 116 mg/dL
- TP (24 h): 5.6 g/dL
- gamma-GTP (24 h): 0.4 IU/L
